From ChEMBL document CHEMBL3044899, “Effect of chloro and fluoro groups on the antimicrobial activity of 2,5-disubstituted 4-thiazolidinones: a comparative study” (2012) come the findings set out here.

Calls of active or inactive are those of the source. The calls are words filed in the database; no cut-off is given here.

In test [1] the test system is Pseudomonas aeruginosa. Kind of test: Antibacterial activity against Pseudomonas aeruginosa MTCC 2453 at 200 ug/ml by cup-plate method. Type of test: functional. To be noted: read-out: DIZ.
For test [2], the system named is Escherichia coli. Kind of test: Antibacterial activity against Escherichia coli MTCC 739 at 100 ug/ml by cup-plate method. Type of test: functional. As to conditions: read-out: DIZ.
The subject of test [3] is Escherichia coli. Kind of test: Antibacterial activity against Escherichia coli MTCC 739 at 50 ug/ml by cup-plate method. Type of test: functional. As to conditions: read-out: DIZ.
In test [4] the test system is Bacillus subtilis. Kind of test: Antibacterial activity against Bacillus subtilis MTCC 121 at 50 ug/ml by cup plate method. Type of test: functional. To be noted: read-out: DIZ.
The test system of test [5] is Staphylococcus aureus. Kind of test: Antibacterial activity against Staphylococcus aureus MTCC 96 at 300 ug/ml by cup-plate method. To be noted: read-out: DIZ. Type of test: functional.
Test [6] relates to Escherichia coli. Kind of test: Antibacterial activity against Escherichia coli MTCC 739 by cup-plate method. The test is classed as functional, organism-based.
In test [7] the test system is Pseudomonas aeruginosa. Kind of test: Antibacterial activity against Pseudomonas aeruginosa MTCC 2453 by cup-plate method. Type of test: functional, organism-based.
Test [8] concerns Pseudomonas aeruginosa. Kind of test: Antibacterial activity against Pseudomonas aeruginosa MTCC 2453 at 300 ug/ml by cup-plate method. The test is classed as functional. To be noted: read-out: DIZ.
Test [9] deals with Staphylococcus aureus. Kind of test: Antibacterial activity against Staphylococcus aureus MTCC 96 by cup-plate method. Type of test: functional, organism-based.
The test system of test [10] is Escherichia coli. Kind of test: Antibacterial activity against Escherichia coli MTCC 739 at 200 ug/ml by cup-plate method. As to conditions: read-out: DIZ. Type of test: functional.
Test [11] has as its system Pseudomonas aeruginosa. Kind of test: Antibacterial activity against Pseudomonas aeruginosa MTCC 2453 at 50 ug/ml by cup-plate method. The test is classed as functional. As to conditions: read-out: DIZ.
Test [12] concerns Staphylococcus aureus. Kind of test: Antibacterial activity against Staphylococcus aureus MTCC 96 at 200 ug/ml by cup-plate method. The test is classed as functional. To be noted: read-out: DIZ.
Test [13] relates to Bacillus subtilis. Kind of test: Antibacterial activity against Bacillus subtilis MTCC 121 at 100 ug/ml by cup plate method. Type of test: functional. To be noted: read-out: DIZ.
Test [14] concerns Staphylococcus aureus. Kind of test: Antibacterial activity against Staphylococcus aureus MTCC 96 at 50 ug/ml by cup-plate method. The test is classed as functional. As to conditions: read-out: DIZ.
In test [15] the test system is Bacillus subtilis. Kind of test: Antibacterial activity against Bacillus subtilis MTCC 121 at 300 ug/ml by cup plate method. Type of test: functional. As to conditions: read-out: DIZ.
Test [16] concerns Staphylococcus aureus. Kind of test: Antibacterial activity against Staphylococcus aureus MTCC 96 at 100 ug/ml by cup-plate method. Type of test: functional. As to conditions: read-out: DIZ.
For test [17], the system named is Escherichia coli. Kind of test: Antibacterial activity against Escherichia coli MTCC 739 at 300 ug/ml by cup-plate method. The test is classed as functional. As to conditions: read-out: DIZ.
Test [18] relates to Bacillus subtilis. Kind of test: Antibacterial activity against Bacillus subtilis MTCC 121 at 200 ug/ml by cup plate method. Type of test: functional. To be noted: read-out: DIZ.
A further test deals with Candida albicans. Kind of test: Antifungal activity against Candida albicans MTCC 227 at 50 to 300 ug/ml by cup-plate method. The test is classed as functional, organism-based.
The test system of test [19] is Bacillus subtilis. Kind of test: Antibacterial activity against Bacillus subtilis MTCC 121 by cup plate method. Type of test: functional, organism-based.
For test [20], the system named is Pseudomonas aeruginosa. Kind of test: Antibacterial activity against Pseudomonas aeruginosa MTCC 2453 at 100 ug/ml by cup-plate method. The test is classed as functional. As to conditions: read-out: DIZ.

As for `O=C1N/C(=N\c2ccc(Cl)cc2)S/C1=C\c1cccc([N+](=O)[O-])c1`, the zone of inhibition at 200 µg/mL in the test with Pseudomonas aeruginosa [1] came to 9 mm; with Escherichia coli [10], 9 mm; in the test on Staphylococcus aureus [12], 9 mm; with Bacillus subtilis [18], 10 mm. The zone of inhibition at 100 µg/mL came out at 8 mm with Escherichia coli [2], 10 mm in the test on Bacillus subtilis [13], 9 mm with Staphylococcus aureus [16] and 9 mm in the test on Pseudomonas aeruginosa [20]. Further, the zone of inhibition at 50 µg/mL in the test on Escherichia coli [3] was 7 mm; in the test on Bacillus subtilis [4], 9 mm; in the test with Pseudomonas aeruginosa [11], 8 mm; in the test on Staphylococcus aureus [14], 8 mm. Besides, the zone of inhibition at 300 µg/mL was found to be 10 mm in the test with Staphylococcus aureus [5], 11 mm in the test on Pseudomonas aeruginosa [8], 11 mm with Bacillus subtilis [15] and 10 mm in the test on Escherichia coli [17]. Further, the Activity result with Escherichia coli [6], in the test on Pseudomonas aeruginosa [7], in the test on Staphylococcus aureus [9] and with Bacillus subtilis [19] was “Dose-dependent effect” each time. For the same compound, the result with Candida albicans was inactive.
With `O=C1N/C(=N\c2ccc(F)c(Cl)c2)S/C1=C\c1cccc([N+](=O)[O-])c1`, the zone of inhibition at 200 µg/mL was 11 mm with Pseudomonas aeruginosa [1], 9 mm in the test with Escherichia coli [10], 14 mm in the test with Staphylococcus aureus [12] and 14 mm in the test with Bacillus subtilis [18]. Besides, the zone of inhibition at 100 µg/mL with Escherichia coli [2] worked out at 8 mm; with Bacillus subtilis [13] it was 12 mm; in the test on Staphylococcus aureus [16], 12 mm; with Pseudomonas aeruginosa [20], 10 mm. Moreover, the zone of inhibition at 50 µg/mL came to 7 mm in the test with Escherichia coli [3], 12 mm in the test on Bacillus subtilis [4], 8 mm in the test with Pseudomonas aeruginosa [11] and 11 mm with Staphylococcus aureus [14]. The zone of inhibition at 300 µg/mL in the test on Staphylococcus aureus [5] is 16 mm; with Pseudomonas aeruginosa [8] it was 12 mm; in the test with Bacillus subtilis [15], 15 mm; in the test with Escherichia coli [17], 10 mm. Also, the Activity entry in the test on Escherichia coli [6], with Pseudomonas aeruginosa [7], in the test with Staphylococcus aureus [9] and in the test with Bacillus subtilis [19] was “Dose-dependent effect” in each case. Also, the result in the test on Candida albicans was inactive.
